Assays:
[1] = biological target: T1, Neuropeptide Y receptor type 1 (Homo sapiens, UniProt P25929); assay: Displacement of [125I]PYY from human recombinant NPY1 receptor expressed in CHO cells; type: cell-based
T1 sequence (P25929 whole entry): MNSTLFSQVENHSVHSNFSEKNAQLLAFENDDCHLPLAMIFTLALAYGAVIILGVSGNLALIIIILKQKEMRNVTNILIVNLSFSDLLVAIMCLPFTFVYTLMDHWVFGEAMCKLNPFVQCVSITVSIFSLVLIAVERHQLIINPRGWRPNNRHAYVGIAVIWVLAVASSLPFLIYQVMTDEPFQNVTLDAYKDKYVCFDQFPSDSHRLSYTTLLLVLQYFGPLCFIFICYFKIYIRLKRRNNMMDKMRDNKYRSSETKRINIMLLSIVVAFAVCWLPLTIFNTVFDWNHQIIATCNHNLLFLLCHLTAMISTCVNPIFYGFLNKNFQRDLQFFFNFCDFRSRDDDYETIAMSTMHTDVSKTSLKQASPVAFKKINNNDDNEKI

[2] = Ratio of drug level in brain against plasma in CD rat at 1 mg/kg, iv; type: ADME, organism-based; design: dose 1 mg/kg, route intravenous; settings: brain and plasma
[3] = Plasma clearance in CD rat at 1 mg/kg, iv; type: ADME, organism-based; design: dose 1 mg/kg, route intravenous
[4] = Oral bioavailability in CD rat at 5 mg/kg, po; type: ADME, organism-based; settings: in vivo

| Structure (SMILES) | IC50 [1] | other results |
| --- | --- | --- |
| CN1CCN([C@@H]2C[C@@H](Oc3ccc(Cl)cc3)c3c(c4ccccc4n3CC3CCNCC3)C2=O)CC1 | 0.776 µM |  |
| O=C1c2c(n(CC3CCNCC3)c3ccccc23)[C@H](Oc2ccc(Cl)cc2)CC1N1CCC(F)(F)CC1 (stereo partly specified) | 1.86 µM |  |
| O=C1CC[C@@H](Oc2ccc(Cl)cc2)c2c1c1ccccc1n2CCCN1CCCCC1 | 7.24 µM |  |
| CN1CCN(C2C[C@@H](Oc3ccc(Cl)cc3)c3c(c4ccccc4n3C)C2=O)CC1 (stereo partly specified) | 25.1 µM |  |
| CN1CCN(C2C[C@@H](Oc3ccc(Cl)cc3)c3c(c4ccccc4n3C[C@H]3CCN(C)C[C@@H]3F)C2=O)CC1 (stereo partly specified) | 0.437 µM |  |
| O=C1c2c(n(CCCN3CCCCC3)c3ccccc23)[C@H](Oc2ccc(Cl)cc2)CC1N1CCOCC1 (stereo partly specified) | 15.8 µM |  |
| CN1CCN(C2C[C@@H](Oc3ccc(Cl)cc3)c3c(c4ccccc4n3C[C@@H]3CCNC[C@@H]3F)C2=O)CC1 (stereo partly specified) | 0.186 µM |  |
| CN1CCN(C2C[C@@H](Oc3ccc(Cl)cc3)c3c(c4ccccc4n3CC3CCNCC3)C2=O)CC1=O (stereo partly specified) | 3.89 µM |  |
| CN1CCN(C2C[C@@H](Oc3ccc(Cl)cc3)c3c(c4ccccc4n3C[C@H]3CCNC[C@@H]3F)C2=O)CC1 (stereo partly specified) | 0.24 µM |  |
| CN1CCN(C2C[C@@H](Oc3ccc(Cl)cc3)c3c(c4ccccc4n3CCCN3CCCCC3)C2=O)CC1 (stereo partly specified) | 1.32 µM |  |
| O=C1c2c(n(CCCN3CCCCC3)c3ccccc23)[C@H](Oc2ccc(Cl)cc2)CC1N1CCNCC1 (stereo partly specified) | 0.331 µM |  |
| CC1CCN(C2C[C@@H](Oc3ccc(Cl)cc3)c3c(c4ccccc4n3CCCN3CCCCC3)C2=O)CC1 (stereo partly specified) | 0.646 µM |  |
| O=C1c2c(n(CCCN3CCCCC3)c3ccccc23)[C@H](Oc2ccc(Cl)cc2)CC1N1CCCCC1 (stereo partly specified) | 3.39 µM |  |

Stronger by IC50 [1], values ahead:

| IC50 [1] | Structure (SMILES) | other results |
| --- | --- | --- |
| 0.1 µM | CC1(F)CCN(C2C[C@@H](Oc3ccc(Cl)cc3)c3c(c4ccccc4n3CC3CCNCC3)C2=O)CC1 (stereo partly specified) |  |
| 0.0933 µM | CNC1CCC(Cn2c3c(c4ccccc42)C(=O)C(N2CCN(C)CC2)C[C@H]3Oc2ccc(Cl)cc2)CC1 (stereo partly specified) |  |
| 0.0224 µM | CC1CCN([C@H]2C[C@@H](Oc3ccc(Cl)cc3)c3c(c4ccccc4n3CC3CCNCC3)C2=O)CC1 |  |
| 0.0339 µM | CN1CCC(Cn2c3c(c4ccccc42)C(=O)C(N2CCN(C)CC2)C[C@H]3Oc2ccc(Cl)cc2)CC1 (stereo partly specified) | Kp [2]: 0.8; clearance [3]: 3.54 L/h/kg; bioavailability [4]: 27% |
| 0.17 µM | CN1CCN(C2C[C@@H](Oc3ccc(Cl)cc3)c3c(c4ccccc4n3C[C@@H]3CCN(C)C[C@@H]3F)C2=O)CC1 (stereo partly specified) | Ki [1]: 0.1 µM |
| 0.0372 µM | O=C1c2c(n(CC3CCNCC3)c3ccccc23)[C@H](Oc2ccc(Cl)cc2)CC1N1CCN(CCO)CC1 (stereo partly specified) |  |
| 0.049 µM | CN1CCN([C@H]2C[C@@H](Oc3ccc(Cl)cc3)c3c(c4ccccc4n3CC3CCNCC3)C2=O)CC1 | bioavailability [4]: 0% |
| 0.0977 µM | CC1CCN([C@@H]2C[C@@H](Oc3ccc(Cl)cc3)c3c(c4ccccc4n3CC3CCNCC3)C2=O)CC1 |  |

Source: ChEMBL document CHEMBL1139029, “Synthesis and SAR of substituted tetrahydrocarbazole derivatives as new NPY-1 antagonists” (Bioorg Med Chem Lett, 2006)
